Source: patent US12527322B2, “Fungicidal compositions” (SYNGENTA CROP PROTECTION AG, priority 2020, dated 2026)
Where “and” joins values, the source holds several entries; their conditions need not be identical. Identical values can stand only once. Like-named read-outs stand apart in the source and are kept apart here. *1 amine or outer side, *2 acyl side, *3 side chain or, on linkers, in order; H or OH if unused. Where a SMILES comes first, the peptide text is derived from it. [ ]: non-standard residue; d: D form. ξ: configuration not given here. ξNMeVal(3-OH) = CNC(C(=O)O)C(C)(C)O; NMeF = CN[CH](Cc1ccccc1)C(=O)O; X1 = CCC(C)C(O[*:1])C(=O)[*:2]; NMeV = CN[CH](C(=O)O)C(C)C

Legend:
Alternaria solani = experiment: Liquid culture test in well plates: Alternaria solani (early blight of tomato/potato), Example 1-2; assay type: cell-based; conditions: for inhibition at 0.0012 ppm: component (B) alone at 0.0012 ppm
Method: Mycelia fragments or conidia suspensions of a fungus, prepared either freshly from liquid cultures of the fungus or from cryogenic storage, are directly mixed into nutrient broth. DMSO solutions of the test compound (max. 10 mg/mL) is diluted with 0.025% Tween20 by factor 50 and 10 μL of this solution is pipetted into a microtiter plate (96-well format). […] The test plates are incubated in the dark at 24° C. and 96% relative humidity (rh). […]
Conidia of the fungus from cryogenic storage were directly mixed into nutrient broth (PDB potato dextrose broth). After placing a DMSO solution of the test compositions into a microtiter plate (96-well format) the nutrient broth containing the fungal spores was added.

Botrytis cinerea = experiment: Liquid culture test in well plates: Botrytis cinerea (Gray mould), Example 1-1; assay type: cell-based
Method: Mycelia fragments or conidia suspensions of a fungus, prepared either freshly from liquid cultures of the fungus or from cryogenic storage, are directly mixed into nutrient broth. DMSO solutions of the test compound (max. 10 mg/mL) is diluted with 0.025% Tween20 by factor 50 and 10 μL of this solution is pipetted into a microtiter plate (96-well format). […] The test plates are incubated in the dark at 24° C. and 96% relative humidity (rh). The inhibition of fungal growth is determined photometrically and visually after 3-7 days, depending on the pathosystem, and percent antifungal activity relative to the untreated check is calculated.
Conidia of the fungus from cryogenic storage were directly mixed into nutrient broth (PDB potato dextrose broth). After placing a DMSO solution of the test compositions into a microtiter plate (96-well format), the nutrient broth containing the fungal spores was added.

[1] = component (B) alone at 0.0050 ppm, 48 hours
[2] = component (B) alone at 0.0003 ppm, 72 hours
[3] = component (B) alone at 0.0006 ppm, 72 hours
[4] = component (B) alone at 0.0050 ppm, 72 hours
[5] = Botrytis cinerea, component (B) alone at 0.0003 ppm, 72 hours
[6] = Botrytis cinerea, component (B) alone at 0.0006 ppm, 72 hours, read-out: (B) inhibition
[7] = Botrytis cinerea, component (B) alone at 0.0012 ppm, 72 hours, read-out: (B) inhibition
[8] = component (B) alone at 0.0012 ppm, 72 hours
[9] = Alternaria solani, component (B) alone at 0.0025 ppm, 48 hours, read-out: (B) inhibition
[10] = Botrytis cinerea, component (B) alone at 0.0025 ppm, 72 hours
[11] = Botrytis cinerea, component (B) alone at 0.0050 ppm, 72 hours

Compound: N-[(1R)-1-benzyl-1,3-dimethyl-butyl]-8-fluoro-quinoline-3-carboxamide/N-[(1S)-1-benzyl-1,3-dimethyl-butyl]-8-fluoro-quinoline-3-carboxamide [B-2]
- (B) inhibition (Alternaria solani; component (B) alone at 0.0025 ppm, 48 hours): 0%
- (B) inhibition (Alternaria solani; [1]): 10%
- (B) inhibition (Alternaria solani; component (B) alone at 0.0100 ppm, 48 hours): 52%
- (B) inhibition (Botrytis cinerea; [2]): 2%
- (B) inhibition (Botrytis cinerea; [3]): 35%
- (B) inhibition (Botrytis cinerea; [4]): 70%

Compound: Cc1ccc2c(ncn2C2=NC(C)(C)C(F)(F)c3ccccc32)c1C [B-9, 1-(4,5-dimethylbenzimidazol-1-yl)-4,4-difluoro-3,3-dimethyl-isoquinoline]
- inhibition at 0.0012 ppm (Alternaria solani; Alternaria solani, 48 hours): 24%
- inhibition at 0.0003 ppm (Botrytis cinerea; [5]): 9%
- inhibition at 0.0006 ppm (Botrytis cinerea; [6]): 28%
- inhibition at 0.0012 ppm (Botrytis cinerea; [7]): 45%

Compound: Cc1cccc2c(C3=NC(C)(C)C(F)(F)c4ccccc43)cnn12 [B-7, 4,4-difluoro-3,3-dimethyl-1-(7-methylpyrazolo[1,5-a]pyridin-3-yl)isoquinoline]
- inhibition at 0.01 ppm (Alternaria solani; Alternaria solani, component (B) alone at 0.0100 ppm, 48 hours, read-out: (B) inhibition): 63%
- inhibition at 0.0006 ppm (Botrytis cinerea; [6]): 18%
- inhibition at 0.0012 ppm (Botrytis cinerea; [7]): 40%

Compound: CC1(C)N=C(c2cnc3ccccc3c2)c2ccccc2C1(F)F [B-1, quinofumelin]
- (B) inhibition (Botrytis cinerea; [2]): 27%
- (B) inhibition (Botrytis cinerea; component (B) alone at 0.0005 ppm, 72 hours): 37%

Compound: N-[(1R)-1-benzyl-3,3,3-trifluoro-1-methyl-propyl]-8-fluoro-quinoline-3-carboxamide/N-[(1S)-1-benzyl-3,3,3-trifluoro-1-methyl-propyl]-8-fluoro-quinoline-3-carboxamide [B-3]
- (B) inhibition (Botrytis cinerea; [3]): 10%
- (B) inhibition (Botrytis cinerea; [8]): 32%
- (B) inhibition (Botrytis cinerea; [4]): 52%

Compound: Cc1ccc2c(ncn2C2=NC(C)(C)C(F)(F)c3c(F)cccc32)c1C [B-8, 1-(4,5-dimethylbenzimidazol-1-yl)-4,4,5-trifluoro-3,3-dimethyl-isoquinoline]
- inhibition at 0.0012 ppm (Alternaria solani; Alternaria solani, 48 hours): 38%
- inhibition at 0.0003 ppm (Botrytis cinerea; [5]): 22%
- inhibition at 0.0006 ppm (Botrytis cinerea; [6]): 40%
- inhibition at 0.0012 ppm (Botrytis cinerea; [7]): 50%

Compound: Cc1ccc2c(C3=NC(C)(C)C(F)(F)c4c(F)cccc43)cnn2c1C [B-5, 1-(6,7-dimethylpyrazolo[1,5-a]pyridin-3-yl)-4,4,5-trifluoro-3,3-dimethyl-isoquinoline]
- inhibition at 0.0012 ppm (Alternaria solani; Alternaria solani, 48 hours): 30%
- inhibition at 0.0025 ppm (Alternaria solani; [9]): 56%
- inhibition at 0.0006 ppm (Botrytis cinerea; [6]): 17%
- inhibition at 0.0012 ppm (Botrytis cinerea; [7]): 40%
- inhibition at 0.0025 ppm (Botrytis cinerea; [10]): 57%
- inhibition at 0.005 ppm (Botrytis cinerea; [11]): 75%

Compound: Cc1ccc2c(C3=NC(C)(C)C(F)(F)c4cc(F)ccc43)cnn2c1C [B-6, 1-(6,7-dimethylpyrazolo[1,5-a]pyridin-3-yl)-4,4,6-trifluoro-3,3-dimethyl-isoquinoline]
- inhibition at 0.0006 ppm (Alternaria solani; Alternaria solani, component (B) alone at 0.0006 ppm, 48 hours): 22%
- inhibition at 0.0012 ppm (Alternaria solani; Alternaria solani, 48 hours): 39%
- inhibition at 0.0025 ppm (Alternaria solani; [9]): 59%
- inhibition at 0.0006 ppm (Botrytis cinerea; [6]): 25%
- inhibition at 0.0012 ppm (Botrytis cinerea; [7]): 34%
- inhibition at 0.0025 ppm (Botrytis cinerea; [10]): 68%
- inhibition at 0.005 ppm (Botrytis cinerea; [11]): 84%

Compound: CCC(C)C1NC(=O)C2CCCN2C(=O)C(Cc2ccccc2)N(C)C(=O)C(Cc2ccccc2)NC(=O)C(C(C)C)N(C)C(=O)C(C(C)CC)OC(=O)C(C(C)(C)O)N(C)C(=O)C(CC(C)C)NC(=O)C(C(C)C)N(C)C1=O (stereo not shown) [Aureobasidin A] (cyclo([ξNMeVal(3-OH)][X1][NMeV]F[NMeF]PI[NMeV]L); configuration not given here)
- inhibition at 0.0001 ppm (Alternaria solani; Alternaria solani, 48 h, read-out: (A) inhibition, Aureobasidin A (A) alone at 0.0001 ppm): 9%
- inhibition at 0.0025 ppm (Alternaria solani; Alternaria solani, 48 h, read-out: (A) inhibition, Aureobasidin A (A) alone at 0.0025 ppm): 20%
- inhibition at 0.005 ppm (Alternaria solani; Alternaria solani, 48 h, read-out: (A) inhibition, Aureobasidin A (A) alone at 0.0050 ppm): 5%
- inhibition at 0.01 ppm (Alternaria solani; Alternaria solani, 48 h, read-out: (A) inhibition, Aureobasidin A (A) alone at 0.0100 ppm): 17%
- inhibition at 0.04 ppm (Alternaria solani; Alternaria solani, 48 h, read-out: (A) inhibition, Aureobasidin A (A) alone at 0.0400 ppm): 36%
- (A) inhibition (Alternaria solani; Aureobasidin A (A) alone at 0.0050 ppm, 48 hours): 3%
- (A) inhibition (Alternaria solani; Aureobasidin A (A) alone at 0.0100 ppm, 48 hours): 14%
- (A) inhibition (Botrytis cinerea; Aureobasidin A (A) alone at 0.0003 ppm, 72 hours): 9% and 1%
- (A) inhibition (Botrytis cinerea; Aureobasidin A (A) alone at 0.0006 ppm, 72 hours): 6%
- (A) inhibition (Botrytis cinerea; Aureobasidin A (A) alone at 0.0200 ppm, 72 hours): 32%
- inhibition at 0.0002 ppm (Botrytis cinerea; Botrytis cinerea, 72 h, read-out: (A) inhibition, Aureobasidin A (A) alone at 0.0002 ppm): 5%
- inhibition at 0.0006 ppm (Botrytis cinerea; Botrytis cinerea, 72 h, read-out: (A) inhibition, Aureobasidin A (A) alone at 0.0006 ppm): 9%
- inhibition at 0.0012 ppm (Botrytis cinerea; Botrytis cinerea, 72 h, read-out: (A) inhibition, Aureobasidin A (A) alone at 0.0012 ppm): 9%

Compound: Cc1cccc2c1ncn2C1=NC(C)(C)C(F)(F)c2cc(Cl)ccc21 [B-10, 6-chloro-4,4-difluoro-3,3-dimethyl-1-(4-methylbenzimidazol-1-yl)isoquinoline]
- inhibition at 0.0006 ppm (Botrytis cinerea; [6]): 21%
- inhibition at 0.0012 ppm (Botrytis cinerea; [7]): 39%
- inhibition at 0.0025 ppm (Botrytis cinerea; [10]): 49%

Compound: N-[(1R)-1-benzyl-3-chloro-1-methyl-but-3-enyl]-8-fluoro-quinoline-3-carboxamide/N-[(1S)-1-benzyl-3-chloro-1-methyl-but-3-enyl]-8-fluoro-quinoline-3-carboxamide [B-4]
- (B) inhibition (Alternaria solani; [1]): 32%
- (B) inhibition (Botrytis cinerea; [3]): 33%
- (B) inhibition (Botrytis cinerea; [8]): 46%
- (B) inhibition (Botrytis cinerea; component (B) alone at 0.0025 ppm, 72 hours): 60%
